This note sets out measurements from ChEMBL document CHEMBL1144963, “Polyacylated neohesperidosides from Geranium caespitosum: bacterial multidrug resistance pump inhibitors” (2003).

Assay type in all cases: functional
In experiment [1] the test system is Staphylococcus aureus. Briefly: Antimicrobial activity against NorA Staphylococcus aureus in combination with Berberine and 10 ug/mL of compound 4 (alone MIC= 64 ug/mL).
Experiment [2] relates to Staphylococcus aureus. Briefly: Antimicrobial activity against Staphylococcus aureus in combination with Norfloxacin and 10 ug/mL of compound 4 (alone MIC= 1 ug/mL).
Experiment [3] has as its system Priestia megaterium. Description: Antimicrobial activity against Bacillus megaterium in combination with Norfloxacin and 10 ug/mL of compound 4 (alone MIC= 1 ug/mL).
The subject of experiment [4] is Bacillus subtilis. Description: Antimicrobial activity against Bacillus subtilis in combination with Norfloxacin and 10 ug/mL of compound 4 (alone MIC= 1 ug/mL).
For experiment [5], the system named is Priestia megaterium. Briefly: Antimicrobial activity against Bacillus megaterium in combination with Rhein and 10 ug/mL of compound 4 (alone MIC= 4 ug/mL).
Experiment [6] deals with Staphylococcus aureus. Briefly: Antimicrobial activity against Staphylococcus aureus in combination with Rhein and 10 ug/mL of compound 4 (alone MIC= 4 ug/mL).
Experiment [7] deals with Staphylococcus aureus. Briefly: Antimicrobial activity against Staphylococcus aureus in combination with Berberine and 10 ug/mL of compound 4 (alone MIC= 500 ug/mL).
Experiment [8] has as its system Staphylococcus aureus. Description: Antimicrobial activity against Staphylococcus aureus in combination with Ciprofloxacin and 10 ug/mL of compound 4 (alone MIC= 0.5 ug/mL).
Experiment [9] concerns Staphylococcus aureus. Briefly: Antimicrobial activity against NorA Staphylococcus aureus in combination with Ciprofloxacin and 10 ug/mL of compound 4 (alone MIC= 0.2 ug/mL).
Experiment [10] has as its system Bacillus subtilis. Description: Antimicrobial activity against Bacillus subtilis in combination with Berberine and 10 ug/mL of compound 4 (alone MIC= 500 ug/mL).
Experiment [11] concerns Bacillus subtilis. Description: Antimicrobial activity against Bacillus subtilis in combination with Ciprofloxacin and 10 ug/mL of compound 4 (alone MIC= 0.8 ug/mL).
Experiment [12] has as its system Priestia megaterium. Description: Antimicrobial activity against Bacillus megaterium in combination with Berberine and 10 ug/mL of compound 4 (alone MIC= 125 ug/mL).
Experiment [13] deals with Staphylococcus aureus. Description: Antimicrobial activity against NorA Staphylococcus aureus in combination with Rhein and 10 ug/mL of compound 4 (alone MIC= 4 ug/mL).
The test system of experiment [14] is Staphylococcus aureus. Description: Antimicrobial activity against NorA Staphylococcus aureus in combination with Norfloxacin and 10 ug/mL of compound 4 (alone MIC= 0.4 ug/mL).
For experiment [15], the system named is Bacillus subtilis. Description: Antimicrobial activity against Bacillus subtilis in combination with Rhein and 10 ug/mL of compound 4 (alone MIC= 16 ug/mL).
The test system of experiment [16] is Priestia megaterium. Briefly: Antimicrobial activity against Bacillus megaterium in combination with Ciprofloxacin and 10 ug/mL of compound 4 (alone MIC= 0.8 ug/mL).

For `CCCCOC1OC(COC(=O)C(C)C)C(OC(=O)C(C)C)C(O)[C@H]1O[C@@H]1OC(C)C(OC(=O)C(C)C)C(OC(C)=O)C1OC(=O)CCCC` (stereo partly specified), the MIC was 1.56 µg/mL in the experiment with Staphylococcus aureus [1]; 0.2 µg/mL with Staphylococcus aureus [2]; 0.2 µg/mL in the experiment with Priestia megaterium [3]; 0.2 µg/mL in the experiment on Bacillus subtilis [4]; 1 µg/mL with Priestia megaterium [5]; 1 µg/mL in the experiment on Staphylococcus aureus [6]. Besides, the MIC in the experiment on Staphylococcus aureus [7] worked out at 3.12 µg/mL; in the experiment on Staphylococcus aureus [8] it was 0.1 µg/mL; in the experiment on Staphylococcus aureus [9] it was 0.1 µg/mL; with Bacillus subtilis [10] it was 125 µg/mL; with Bacillus subtilis [11], 0.1 µg/mL; with Priestia megaterium [12] it was 6.25 µg/mL. Besides, the MIC was 1 µg/mL in the experiment on Staphylococcus aureus [13], 0.1 µg/mL in the experiment with Staphylococcus aureus [14], 4 µg/mL with Bacillus subtilis [15] and 0.1 µg/mL with Priestia megaterium [16].

Usually MIC stands for the smallest concentration in the dilution series that meets the test's criterion for growth inhibition.
